Test results from patent US4397676A, “N-Phosphonomethylglycine derivatives” (Geshuri Laboratories Ltd., priority 1982, dated 1983).
Where a name gives a salt, the structure may show the parent alone.

Legend:
[1] = Solubility of NPMG-iminourea salts in water; assay type: physicochemical
Experimental: SOLUBILITY OF NPMG-IMINOUREA SALTS
NPMG Salt 20° C. (in grams)

[2] = background statement; cited from earlier work
[3] = test system: various plant species; conditions: background statement; cited from earlier work

O=C(O)CNCP(=O)(O)O [I, NPMG MONO (GUANIDINE) SALT]
Weight dissolved in 100 ml water at 20° C. [1]: 15.7 grams

O=C(O)CNCP(=O)(O)O [II, NPMG MONO (AMINOGUANIDINE) SALT]
water solubility (in words) ([1]; in words): highly water-soluble | content of active materials in solutions readily prepared ([1]; water as preferred diluent): ≤ 60 % by weight

O=C(O)CNCP(=O)(O)O [NPMG, N-phosphonomethylglycine]
solubility in water and conventional organic solvents (in words) [2]: relatively insoluble in water and conventional organic solvents | herbicidal effect (in words) [3]: very effective phytotoxicant or herbicide

O=C(O)CNCP(=O)(O)O [V, NPMG MONO (TETRA METHYL GUANIDINE) SALT]
Weight dissolved in 100 ml water at 20° C. ([1]; listed as 1,1,3,3 Tetra Methyl Guanidine): 165 grams
